Measurements from patent publication US6737383B1, “Herbicidal oxadiazolidines” (priority 1999, dated 2004).

Columns and labels:
[1] = tested on: bamyardgrass; assay: Test B flood test barnyardgrass; assay type: in vivo, Echinochloa crus-galli
How it was run: (§1)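 Read-out is a visual response score from 0 (no effect) to 10 (complete control), assigned by comparison with untreated controls. Treatment was applied at the 2-leaf stage, and plants stayed in the greenhouse for twelve to sixteen days before scoring.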

[2] = tested on: wild oat; assay: Test B pre/postemergence wild oat; assay type: in vivo, Avena fatua
How it was run: (§2)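 Test chemicals in a non-phytotoxic solvent mixture with surfactant were sprayed preemergence onto planted seeds and postemergence onto plants 2 to 18 cm tall (1- to 4-leaf stage). After twelve to sixteen days in a greenhouse, injury was visually rated against untreated controls from 0 (no effect) to 10 (complete control).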

[3] = tested on: wheat; assay: Test B pre/postemergence wheat; assay type: in vivo, Triticum aestivum
How it was run: as §2

[4] = tested on: surinam grass; assay: Test B pre/postemergence surinam grass; assay type: in vivo, Brachiaria decumbens
How it was run: as §2

[5] = tested on: crabgrass; assay: Test B pre/postemergence crabgrass; assay type: in vivo, Digitaria sanguinalis
How it was run: as §2

[6] = tested on: velvetleaf; assay: Test B pre/postemergence velvetleaf; assay type: in vivo, Abutilon theophrasti
How it was run: as §2

[7] = tested on: cocklebur; assay: Test B pre/postemergence cocklebur; assay type: in vivo, Xanthium strumarium
How it was run: as §2

[8] = tested on: giant foxtail; assay: Test B pre/postemergence giant foxtail; assay type: in vivo, Setaria faberii
How it was run: as §2

[9] = tested on: rice; assay: Test B flood test rice; assay type: in vivo, Oryza sativa
How it was run: as §1

[10] = tested on: duck salad; assay: Test B flood test duck salad; assay type: in vivo, Heteranthera limosa
How it was run: as §1

[11] = tested on: blackgrass; assay: Test B pre/postemergence blackgrass; assay type: in vivo, Alopecurus myosuroides
How it was run: as §2

[12] = tested on: bedstraw; assay: Test B pre/postemergence bedstraw; assay type: in vivo, Galium aparine
How it was run: as §2

[13] = tested on: pigweed; assay: Test B pre/postemergence pigweed; assay type: in vivo, Amaranthus retroflexus
How it was run: as §2

[14] = tested on: purple nutsedge; assay: Test B pre/postemergence purple nutsedge; assay type: in vivo, Cyperus rotundus
How it was run: as §2

[15] = tested on: sugar beet; assay: Test B pre/postemergence sugar beet; assay type: in vivo, Beta vulgaris
How it was run: as §2

[16] = tested on: morningglory; assay: Test B pre/postemergence morningglory; assay type: in vivo, Ipomoea hederacea
How it was run: as §2

[17] = Rate 62 g/ha, headed Pre-emergence (flood test species), scale 0 to 10 (0 no effect, 10 complete control)
[18] = Rate 125 g/ha, Pre-emergence, flood test species, scale 0 to 10 where 0 is no effect and 10 is complete control
[19] = Rate 250 g/ha, Pre-emergence, flood-test species, scale 0 to 10, 0 is no effect, 10 is complete control
[20] = Rate 500 g/ha, Pre-emergence, flood test species, scale 0 to 10 (0 no effect, 10 complete control)
[21] = Preemergence, Rate 62 g/ha, scale of 0 to 10 where 0 is no effect and 10 is complete control
[22] = Preemergence, Rate 250 g/ha, scale of 0 to 10 where 0 is no effect and 10 is complete control
[23] = Preemergence, Rate 500 g/ha, scale of 0 to 10 where 0 is no effect and 10 is complete control
[24] = Rate 125 g/ha, Postemergence, scale of 0 to 10 where 0 is no effect and 10 is complete control
[25] = Rate 250 g/ha, Postemergence, scale of 0 to 10 where 0 is no effect and 10 is complete control
[26] = Rate 500 g/ha, Postemergence, scale 0 to 10, 0 no effect, 10 complete control
[27] = Rate 125 g/ha, Preemergence, scale of 0 to 10 where 0 is no effect and 10 is complete control
[28] = Rate 62 g/ha, Postemergence, scale of 0 to 10 where 0 is no effect and 10 is complete control

Compound: CC(C)N(C(=O)n1oc(=O)n(C2CCCC2)c1=O)c1ccc(F)cc1 [Compound 271]
- Barnyardgrass plant response rating [1, 17]: 4
- Barnyardgrass plant response rating [1, 18]: 3
- Barnyardgrass plant response rating [1, 19]: 9
- Barnyardgrass plant response rating [1, 20]: 9
- Wild oats plant response rating [2, 21]: 2
- Wild oats plant response rating [2, 22]: 6
- Plant response rating, Wild oats [2, 23]: 8
- Wild oats plant response rating [2, 24]: 0
- Plant response rating, Wild oats [2, 25]: 0
- Wild oats plant response rating [2, 26]: 3
- Wheat plant response rating [3, 21]: 0
- Wheat plant response rating [3, 22]: 0
- Plant response rating, Wheat [3, 23]: 3
- Wheat plant response rating [3, 24]: 0
- Wheat plant response rating [3, 27]: 0
- Plant response rating, Wheat [3, 25]: 0
- Wheat plant response rating [3, 26]: 0
- B. signalgrass plant response rating [4, 21]: 8
- B. signalgrass plant response rating [4, 22]: 8
- Plant response rating, B. signalgrass [4, 23]: 10
- B. signalgrass plant response rating [4, 28]: 0
- B. signalgrass plant response rating [4, 24]: 0
- B. signalgrass plant response rating [4, 27]: 8
- Plant response rating, B. signalgrass [4, 25]: 2
- B. signalgrass plant response rating [4, 26]: 5
- Crabgrass plant response rating [5, 21]: 3
- Crabgrass plant response rating [5, 22]: 7
- Plant response rating, Crabgrass [5, 23]: 8
- Crabgrass plant response rating [5, 24]: 1
- Crabgrass plant response rating [5, 27]: 5
- Plant response rating, Crabgrass [5, 25]: 1
- Crabgrass plant response rating [5, 26]: 5
- Velvetleaf plant response rating [6, 21]: 2
- Velvetleaf plant response rating [6, 22]: 7
- Plant response rating, Velvetleaf [6, 23]: 8
- Velvetleaf plant response rating [6, 24]: 0
- Velvetleaf plant response rating [6, 27]: 4
- Plant response rating, Velvetleaf [6, 25]: 0
- Velvetleaf plant response rating [6, 26]: 3
- Cocklebur plant response rating [7, 21]: 0
- Cocklebur plant response rating [7, 22]: 0
- Plant response rating, Cocklebur [7, 23]: 4
- Cocklebur plant response rating [7, 28]: 0
- Cocklebur plant response rating [7, 24]: 0
- Cocklebur plant response rating [7, 27]: 0
- Plant response rating, Cocklebur [7, 25]: 1
- Cocklebur plant response rating [7, 26]: 4
- Giant foxtail plant response rating [8, 21]: 8
- Giant foxtail plant response rating [8, 22]: 10
- Plant response rating, Giant foxtail [8, 23]: 10
- Giant foxtail plant response rating [8, 24]: 3
- Giant foxtail plant response rating [8, 27]: 10
- Plant response rating, Giant foxtail [8, 25]: 4
- Giant foxtail plant response rating [8, 26]: 7
- Rice plant response rating [9, 17]: 0
- Rice plant response rating [9, 18]: 0
- Rice plant response rating [9, 19]: 0
- Rice plant response rating [9, 20]: 0
- Ducksalad plant response rating [10, 17]: 0
- Ducksalad plant response rating [10, 18]: 0
- Ducksalad plant response rating [10, 19]: 0
- Ducksalad plant response rating [10, 20]: 0
- Blackgrass plant response rating [11, 21]: 8
- Blackgrass plant response rating [11, 22]: 10
- Plant response rating, Blackgrass [11, 23]: 10
- Blackgrass plant response rating [11, 28]: 3
- Blackgrass plant response rating [11, 24]: 4
- Blackgrass plant response rating [11, 27]: 9
- Plant response rating, Blackgrass [11, 25]: 8
- Blackgrass plant response rating [11, 26]: 8
- Bedstraw plant response rating [12, 21]: 3
- Bedstraw plant response rating [12, 22]: 10
- Plant response rating, Bedstraw [12, 23]: 10
- Bedstraw plant response rating [12, 28]: 4
- Bedstraw plant response rating [12, 24]: 6
- Bedstraw plant response rating [12, 27]: 10
- Plant response rating, Bedstraw [12, 25]: 8
- Bedstraw plant response rating [12, 26]: 8
- Redroot pigweed plant response rating [13, 21]: 3
- Redroot pigweed plant response rating [13, 22]: 10
- Plant response rating, Redroot pigweed [13, 23]: 10
- Redroot pigweed plant response rating [13, 24]: 5
- Redroot pigweed plant response rating [13, 27]: 8
- Plant response rating, Redroot pigweed [13, 25]: 7
- Redroot pigweed plant response rating [13, 26]: 8
- Nutsedge plant response rating [14, 21]: 0
- Nutsedge plant response rating [14, 22]: 0
- Plant response rating, Nutsedge [14, 23]: 0
- Nutsedge plant response rating [14, 24]: 0
- Nutsedge plant response rating [14, 27]: 0
- Plant response rating, Nutsedge [14, 25]: 0
- Nutsedge plant response rating [14, 26]: 0
- Sugarbeets plant response rating [15, 21]: 5
- Sugarbeets plant response rating [15, 22]: 8
- Plant response rating, Sugarbeets [15, 23]: 8
- Sugarbeets plant response rating [15, 24]: 2
- Sugarbeets plant response rating [15, 27]: 6
- Plant response rating, Sugarbeets [15, 25]: 4
- Sugarbeets plant response rating [15, 26]: 6
- Morningglory plant response rating [16, 21]: 1
- Morningglory plant response rating [16, 22]: 2
- Plant response rating, Morningglory [16, 23]: 7
- Morningglory plant response rating [16, 24]: 2
- Morningglory plant response rating [16, 27]: 1
- Plant response rating, Morningglory [16, 25]: 8
- Morningglory plant response rating [16, 26]: 8
